We go through 13 compounds from patent US8471027B2, “Adamantyl compounds” (Hoffmann-La Roche Inc., priority 2011, dated 2013).

The subject of assay [1] is phospho(Ser63)-c-jun in HK-2 cells. Kind of assay: Cell-based assay for JNK inhibitors: in-cell ELISA of TNFα-stimulated phospho(Ser63)-c-jun in HK-2 cells. The following applies: Homo sapiens, 10 ng/mL TNFα, 60 min preincubation with compound. The protocol:
Cell-Based Assay for JNK Inhibitors
The cell-based assay employed the in-cell ELISA method to determine the ability of compounds to prevent the generation of phospho(Ser63)-c-jun in HK-2 cells (human proximal tubule cells) in response to stimulation with tumor necrosis factor α (TNFα). In brief, for quantification of phospho(Ser63)-c-jun, the cells (in 96-well format) were fixed and permeablized then incubated sequentially with a rabbit anti-phospho-c-jun First Antibody specific for the presence of the phospho-Ser63 epitope and a donkey anti-rabbit IgG Second Antibody linked to horseradish peroxidase (HRP) for colorimetric quantitation of binding. For determination of non-specific binding of the First Antibody, Blank wells were preincubated with a mouse anti-phospho(Ser63)-c-jun Blocking Antibody that prevented specific binding of the First Antibody to the phospho-Ser63 epitope, but which was not recognized by the donkey anti-rabbit IgG Second Antibody. […] Blank wells received no TNFα stimulation or compound. Additional Control wells received TNFα stimulation, but no compound. The signal obtained in this case was considered the value for 0% inhibition (Control value).
Stock cultures of HK-2 cells (ATCC, Manassas, Va.) were grown under a 5% CO2/[…] atmosphere at 37 degrees C. in Keratinocyte-SFM medium (KSFM, Invitrogen, Grand Island, N.Y.) containing 5 μg/L epidermal growth factor and 5 mg/L bovine pituitary extract (both supplied with the medium), additionally supplemented with 10% (v/v) fetal calf serum (FCS; Invitrogen, Grand Island, N.Y.) and 1% (v/v) antibiotic-antimycotic (ABAM: Sigma, St. Louis, Mo.). For assays, cells were seeded in collagen coated 96-well polystyrene plates (BD Biosciences, Franklin Lakes, N.J.) at a density of 40,000 cells/well and cultured for 24 h in the same medium (100 μL/well) followed by a further 16-24 h in 100 μL of similar medium, but without FCS. […] Cells were incubated for a further 30 minutes and then the medium was aspirated and the wells washed with 100 μL/well PBS followed by the addition of 100 μL 3.7% (v/v) Formaldehyde (Fisher Scientific, Fair Lawn, N.J.) in PBS. Plates were then allowed to stand at room temperature for 20 minutes before being washed with 200 μL/well of PBS. (Further steps were performed immediately or the plates were stored at 4 degrees C. and the assay completed the next day.) To each well was added 100 μL 1% (v/v) TritonX-100 (Sigma, St. Louis, Mo.) in PBS followed by 20 minutes standing at room temperature, washing with 200 μL/well PBS, the addition of 100 μL/well of Quenching buffer (1% (v/v) hydrogen peroxide (Sigma, St. Louis, Mo.) and 0.1% (w/v) sodium azide (Fisher Scientific, Fair Lawn, N.J.)) in PBS and a further 20 minutes at room temperature. Plates were then washed twice with 200 μL/well of 0.1% (v/v) Tween-20 (Teknova, Hollister, Calif.) in PBS before addition of 200 μL/well of 2% BSA/0.10% Tween-20 in PBS and a further 1 hour at room temperature. At this time, buffer was removed from Blank wells and replaced with 90 μL/well of mouse anti-phospho-c-jun-Ser63 (BD Bioscience, 558036) diluted 1:4000 in PBS containing 1% BSA/0.1% Tween-20 (Antibody Dilution Buffer). All other wells are replaced with 90 μL/well of rabbit anti-phospho-c-jun-Ser63 (Cell Signaling, 9261) diluted 1:250 in Antibody Dilution Buffer. After a further one hour, rabbit anti-phospho-c-jun-Ser63 is added directly to the solution in the Blank wells resulting in 1:250 dilution of this antibody. Plates were then placed on a slowly rotating platform at 4 degrees C. overnight. Wells were then washed thrice with 200 μL/well PBS/0.1% Tween-20. After addition of the third wash, the plates were placed on a slowly rotating platform for 15 minutes at room temperature. […]

The target of assay [2] is JNK1 (Homo sapiens, UniProt P45983). Kind of assay: In vitro JNK1 Assay (TR-FRET, phosphorylation of GST-c-Jun). The class given is biochemical. The following applies: 0.2 nM JNK1, 26.7 nM GST-c-Jun, 2 μM ATP. The procedure:
Phosphorylation of GST-c-Jun protein (amino acid residues 1-79) was measured as JNK1 activity. […] The reaction buffer contained 50 mM HEPES, pH 7.0, 10 mM MgCl2, 1 mM DTT, 0.1 mM Na3 VO4 and 0.2 mg/mL BSA. After 30 min. incubation at room temperature, the reaction was terminated by adding buffer containing 8 mM EDTA and a polyclonal anti-phospho-c-Jun antibody (Cell Signaling #9261L), followed by an additional incubation of 30 min. at room temperature. […] Time-resolved Fluorescence Resonance Energy Transfer (TR-FRET) signals were measured 1 hr. later on the EnVision reader (Perkin Elmer). Compound potency was assessed at 10 serially diluted concentrations. Percentage of inhibition at each concentration was determined to generate an IC50 value for each compound.

Chain of JNK1 (P45983 whole entry, species assumed, the tested form may be a part): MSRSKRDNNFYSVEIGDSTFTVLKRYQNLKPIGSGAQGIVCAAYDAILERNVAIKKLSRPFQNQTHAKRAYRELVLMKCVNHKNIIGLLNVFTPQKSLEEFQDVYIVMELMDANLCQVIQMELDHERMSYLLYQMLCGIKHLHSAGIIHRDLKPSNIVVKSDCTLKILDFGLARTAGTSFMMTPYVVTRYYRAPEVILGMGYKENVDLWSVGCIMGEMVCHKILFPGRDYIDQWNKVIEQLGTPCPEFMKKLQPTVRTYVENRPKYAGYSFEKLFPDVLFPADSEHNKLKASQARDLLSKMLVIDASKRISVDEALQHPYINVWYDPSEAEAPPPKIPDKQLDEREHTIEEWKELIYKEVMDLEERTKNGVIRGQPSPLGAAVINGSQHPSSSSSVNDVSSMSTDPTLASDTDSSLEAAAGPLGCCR

Take `COC(=O)c1c(Cc2ccc(C(=O)N[C@H]3[C@@H]4C[C@@H]5C[C@H]3C[C@@](O)(C5)C4)cc2)c(=O)c2cccnc2n1-c1ccccc1` [Compound I-2, rel-3-[4-((1S,2R,3R,5S,7S)-5-Hydroxy-adamantan-2-ylcarbamoyl)-benzyl]-4-oxo-1-phenyl-1,4-dihydro-[1,8]naphthyridine-2-carboxylic acid methyl ester]: in assay [1], the EC50 is 8500 nM. In assay [2], half-maximal inhibition (IC50) was put at 47 nM.

Take `COC(=O)c1c(Cc2ccc(C(=O)N[C@@H]3[C@@H]4C[C@@H]5C[C@H]3C[C@@](O)(C5)C4)cc2)c(=O)c2ccc(Cl)cc2n1-c1ccccc1` [Compound I-3, rel-7-Chloro-3-[4-((1S,2S,3R,5S,7S)-5-hydroxy-adamantan-2-ylcarbamoyl)-benzyl]-4-oxo-1-phenyl-1,4-dihydro-quinoline-2-carboxylic acid methyl ester]: the EC50 in assay [1] was determined as 5800 nM. The same compound yielded an IC50 in assay [2] of 12 nM.

For `COC(=O)c1c(Cc2ccc(C(=O)N[C@H]3[C@@H]4C[C@@H]5C[C@H]3C[C@@](O)(C5)C4)cc2)c(=O)c2ccc(Cl)cc2n1-c1ccccc1` [Compound I-4, rel-7-Chloro-3-[4-((1S,2R,3R,5S,7S)-5-hydroxy-adamantan-2-ylcarbamoyl)-benzyl]-4-oxo-1-phenyl-1,4-dihydro-quinoline-2-carboxylic acid methyl ester], in assay [1], the EC50 stood at 6300 nM. In assay [2], this compound yielded an IC50 of 51 nM.

For the compound `O=C(N[C@@H]1[C@@H]2C[C@@H]3C[C@H]1C[C@@](O)(C3)C2)c1ccc(Cc2cn(-c3ccccn3)c3cc(Cl)ccc3c2=O)cc1` [Compound I-5, rel-4-(7-Chloro-4-oxo-1-pyridin-2-yl-1,4-dihydro-quinolin-3-ylmethyl)-N-((1S,2S,3R,5S,7S)-5-hydroxy-adamantan-2-yl)-benzamide], the IC50 in assay [2] is 330 nM.

With `COC(=O)c1c(Cc2ccc(C(=O)N[C@@H]3[C@@H]4C[C@@H]5C[C@H]3C[C@@](OC(C)=O)(C5)C4)cc2)c(=O)c2ccc(Cl)cc2n1-c1ccccc1` [Compound I-6, rel-3-[4-((1S,2S,3R,5S,7S)-5-Acetoxy-adamantan-2-ylcarbamoyl)-benzyl]-7-chloro-4-oxo-1-phenyl-1,4-dihydro-quinoline-2-carboxylic acid methyl ester], the EC50 in assay [1] was found to be 4400 nM. Half-maximal inhibition in assay [2] (IC50) required 110 nM.

`COC(=O)c1c(Cc2ccc(C(=O)N[C@H]3[C@@H]4C[C@@H]5C[C@H]3C[C@@](N)(C5)C4)cc2)c(=O)c2cccnc2n1-c1ccccc1` [Compound I-8, rel-3-[4-((1S,2R,3R,5S,7S)-5-amino-adamantan-2-ylcarbamoyl)-benzyl]-4-oxo-1-phenyl-1,4-dihydro-[1,8]naphthyridine-2-carboxylic acid methyl ester]: in assay [1], the EC50 stood at 44000 nM.

Consider `COC(=O)c1c(Cc2ccc(C(=O)N[C@@H]3[C@@H]4C[C@@H]5C[C@H]3C[C@@](N)(C5)C4)cc2)c(=O)c2ccc(Cl)cc2n1-c1ccccc1` [Compound I-9, rel-3-[4-((1S,2S,3R,5S,7S)-5-Amino-adamantan-2-ylcarbamoyl)-benzyl]-7-chloro-4-oxo-1-phenyl-1,4-dihydro-quinoline-2-carboxylic acid methyl ester], for which the EC50 in assay [1] stood at 3200 nM. The compound also registered an IC50 in assay [2] of 27 nM.

Regarding `COC(=O)c1c(Cc2ccc(C(=O)N[C@@H]3[C@@H]4C[C@@H]5C[C@H]3C[C@@](NC(C)=O)(C5)C4)cc2)c(=O)c2ccc(Cl)cc2n1-c1ccccc1` [Compound I-10, rel-3-[4-((1S,2S,3R,5S,7S)-5-Acetylamino-adamantan-2-ylcarbamoyl)-benzyl]-7-chloro-4-oxo-1-phenyl-1,4-dihydro-quinoline-2-carboxylic acid methyl ester], in assay [1], the EC50 came to 3500 nM. In assay [2], this compound displayed an IC50 of 30 nM.

As to `COC(=O)c1c(Cc2ccc(C(=O)N[C@@H]3[C@@H]4C[C@@H]5C[C@H]3C[C@@](NC(=O)C(C)(C)C)(C5)C4)cc2)c(=O)c2ccc(Cl)cc2n1-c1ccccc1` [Compound I-11, rel-7-Chloro-3-{4-[(1S,2S,3R,5S,7S)-5-(2,2-dimethyl-propionylamino)-adamantan-2-ylcarbamoyl]-benzyl}-4-oxo-1-phenyl-1,4-dihydro-quinoline-2-carboxylic acid methyl ester], in assay [1], the EC50 came out at 6900 nM. The compound also came in with an IC50 in assay [2] of 62 nM.

On to `COC(=O)c1c(Cc2ccc(C(=O)N[C@@H]3[C@@H]4C[C@@H]5C[C@H]3C[C@@](NC(=O)C(C)(C)OC(C)=O)(C5)C4)cc2)c(=O)c2ccc(Cl)cc2n1-c1ccccc1` [Compound I-12, rel-3-{4-[(1S,2S,3R,5S,7S)-5-(2-Acetoxy-2-methyl-propionylamino)-adamantan-2-ylcarbamoyl]-benzyl}-7-chloro-4-oxo-1-phenyl-1,4-dihydro-quinoline-2-carboxylic acid methyl ester], for which the EC50 in assay [1] came to 3300 nM. Also, in assay [2], the IC50 was found to be 17 nM.

As to `COC(=O)c1c(Cc2ccc(C(=O)N[C@@H]3[C@@H]4C[C@@H]5C[C@H]3C[C@@](NC(=O)C(C)(C)O)(C5)C4)cc2)c(=O)c2ccc(Cl)cc2n1-c1ccccc1` [Compound I-13, rel-7-Chloro-3-{4-[(1S,2S,3R,5S,7S)-5-(2-hydroxy-2-methyl-propionylamino)-adamantan-2-ylcarbamoyl]-benzyl}-4-oxo-1-phenyl-1,4-dihydro-quinoline-2-carboxylic acid methyl ester], the EC50 in assay [1] came out at 1900 nM. The compound also returned a half-maximal inhibitory concentration (IC50) in assay [2] of 42 nM.

On to `COC(=O)c1c(Cc2ccc(C(=O)N[C@@H]3[C@@H]4C[C@@H]5C[C@H]3C[C@@](NS(=O)(=O)C3CC3)(C5)C4)cc2)c(=O)c2ccc(Cl)cc2n1-c1ccccc1` [Compound I-14, rel-7-Chloro-3-[4-((1S,2S,3R,5S,7S)-5-cyclopropanesulfonylamino-adamantan-2-ylcarbamoyl)-benzyl]-4-oxo-1-phenyl-1,4-dihydro-quinoline-2-carboxylic acid methyl ester], for which the EC50 in assay [1] came to 3100 nM. This compound had an IC50 in assay [2] of 26 nM.

Regarding `COC(=O)c1c(Cc2ccc(C(=O)N[C@@H]3[C@@H]4C[C@@H]5C[C@H]3C[C@@](NS(C)(=O)=O)(C5)C4)cc2)c(=O)c2ccc(Cl)cc2n1-c1ccccc1` [Compound I-15, rel-7-Chloro-3-[4-((1S,2S,3R,5S,7S)-5-methanesulfonylamino-adamantan-2-ylcarbamoyl)-benzyl]-4-oxo-1-phenyl-1,4-dihydro-quinoline-2-carboxylic acid methyl ester], the EC50 in assay [1] worked out at 3200 nM. Moreover, 57 nM corresponded to half-maximal inhibition in assay [2] (IC50).
